From patent US10624897B2, “Chlorobenzene substituted azaaryl compounds” (TAIPEI MEDICAL UNIVERSITY, priority 2015, dated 2020)
“And” between values parts separate entries of the source, which are not always exact repeats. Identical values can stand only once.

Tests used:
PIP5K1C = target: T1, PIP5K1C (Homo sapiens, UniProt O60331); assay: Lipid kinase binding assay (Kd)
T1 construct: made in house; host or cells: E. coli BL21-derived host (T7 phage) or HEK-293
Protocol: (§1) Kinase assays. For most assays, kinase-tagged T7 phage strains were prepared in an E. coli host derived from the BL21 strain. E. coli were grown to log-phase and infected with T7 phage and incubated with shaking at 32° C. until lysis. The lysates were centrifuged and filtered to remove cell debris. The remaining kinases were produced in HEK-293 cells and subsequently tagged with DNA for qPCR detection. […] The liganded beads were blocked with excess biotin and washed with blocking buffer (SeaBlock (Pierce), 1% BSA, 0.05% Tween 20, 1 mM DTT) to remove unbound ligand and to reduce non-specific binding. […] All reactions were performed in polystyrene 96-well plates in a final volume of 0.135 ml. […] The kinase concentration in the eluates was measured by qPCR.
(§2) An 11-point 3-fold serial dilution of each test compound was prepared in 100% DMSO at 100× final test concentration and subsequently diluted to 1× in the assay (final DMSO concentration=1%). Most Kds were determined using a compound top concentration=30,000 nM.
(§3) Binding constants (Kds) were calculated with a standard dose-response curve using the Hill equation: […]
(§4) The Hill Slope was set to −1. Curves were fitted using a non-linear least square fit with the Levenberg-Marquardt algorithm.

PIK3C3 = target: T2, PIK3C3 (Homo sapiens, UniProt Q8NEB9); assay: Lipid kinase binding assay (Kd)
T2 construct: made in house; host or cells: E. coli BL21-derived host (T7 phage) or HEK-293
Protocol: as §1, §2, §3, §4

PIP5K2C = target: T3, PIP5K2C (Homo sapiens, UniProt Q8TBX8); assay: Lipid kinase binding assay (Kd)
T3 construct: made in house; host or cells: E. coli BL21-derived host (T7 phage) or HEK-293
Protocol: as §1, §2, §3, §4

PIK3CD = target: T4, PIK3CD (Homo sapiens, UniProt O00329); assay: Lipid kinase binding assay (Kd)
T4 construct: made in house; host or cells: E. coli BL21-derived host (T7 phage) or HEK-293
Protocol: as §1, §2, §3, §4

PIKFYVE = target: T5, PIKFYVE (Homo sapiens, UniProt Q9Y2I7); assay: Lipid kinase binding assay (Kd)
T5 construct: made in house; host or cells: E. coli BL21-derived host (T7 phage) or HEK-293
Protocol: as §1, §2, §3, §4

PIP5K2B = target: T6, PIP5K2B (Homo sapiens, UniProt P78356); assay: Lipid kinase binding assay (Kd)
T6 construct: made in house; host or cells: E. coli BL21-derived host (T7 phage) or HEK-293
Protocol: as §1, §2, §3, §4

PIK3CB = target: T7, PIK3CB (Homo sapiens, UniProt P42338); assay: Lipid kinase binding assay (Kd)
T7 construct: made in house; host or cells: E. coli BL21-derived host (T7 phage) or HEK-293
Protocol: as §1, §2, §3, §4

PIK3C2G = target: T8, PIK3C2G (Homo sapiens, UniProt O75747); assay: Lipid kinase binding assay (Kd)
T8 construct: made in house; host or cells: E. coli BL21-derived host (T7 phage) or HEK-293
Protocol: as §1, §2, §3, §4

PIP5K1A = target: T9, PIP5K1A (Homo sapiens, UniProt Q99755); assay: Lipid kinase binding assay (Kd)
T9 construct: made in house; host or cells: E. coli BL21-derived host (T7 phage) or HEK-293
Protocol: as §1, §2, §3, §4

PIK3C2B = target: T10, PIK3C2B (Homo sapiens, UniProt O00750); assay: Lipid kinase binding assay (Kd)
T10 construct: made in house; host or cells: E. coli BL21-derived host (T7 phage) or HEK-293
Protocol: as §1, §2, §3, §4

PIK3CG = target: T11, PIK3CG (Homo sapiens, UniProt P48736); assay: Kinase binding assay (Kd)
T11 construct: made in house; host or cells: E. coli BL21-derived host (T7 phage) for most kinases, HEK-293 for the rest
Protocol: as §1, §2, §3, §4

IKK-beta = target: T12, IKK-beta (Homo sapiens, UniProt O14920); assay: Kinase binding assay (Kd)
T12 construct: made in house; host or cells: E. coli BL21-derived host (T7 phage) for most kinases, HEK-293 for the rest
Protocol: as §1, §2, §3, §4

TYK2 = target: T13, TYK2 (Homo sapiens, UniProt P29597); assay: Kinase binding assay (Kd)
T13 construct: made in house; host or cells: E. coli BL21-derived host (T7 phage) or HEK-293
Protocol: as §1, §2, §3, §4

PIK3CA = target: T14, PIK3CA (Homo sapiens, UniProt P42336); assay: Kinase binding assay (Kd)
T14 construct: made in house; host or cells: E. coli BL21-derived host (T7 phage) for most kinases, HEK-293 for the rest
Protocol: as §1, §2, §3, §4

VEGFR2 = target: T15, VEGFR2 (Homo sapiens, UniProt P35968); assay: Kinase binding assay (Kd)
T15 construct: made in house; host or cells: E. coli BL21-derived host (T7 phage) or HEK-293
Protocol: as §1, §2, §3, §4

AURKB = target: T16, AURKB (Homo sapiens, UniProt Q96GD4); assay: Kinase binding assay (Kd)
T16 construct: made in house; host or cells: E. coli BL21-derived host (T7 phage) or HEK-293
Protocol: as §1, §2, §3, §4

CSNK1D = target: T17, CSNK1D (Homo sapiens, UniProt P48730); assay: Kinase binding assay (Kd)
T17 construct: made in house; host or cells: E. coli BL21-derived host (T7 phage) or HEK-293
Protocol: as §1, §2, §3, §4

BTK = target: T18, BTK (Homo sapiens, UniProt Q06187); assay: Kinase binding assay (Kd)
T18 construct: made in house; host or cells: E. coli BL21-derived host (T7 phage) or HEK-293
Protocol: as §1, §2, §3, §4

AKT2 = target: T19, AKT2 (Homo sapiens, UniProt P31751); assay: Kinase binding assay (Kd)
T19 construct: made in house; host or cells: E. coli BL21-derived host (T7 phage) or HEK-293
Protocol: as §1, §2, §3, §4

PIM1 = target: T20, PIM1 (Homo sapiens, UniProt P11309); assay: Kinase binding assay (Kd)
T20 construct: made in house; host or cells: E. coli BL21-derived host (T7 phage) for most kinases, HEK-293 for the rest
Protocol: as §1, §2, §3, §4

PLK3 = target: T21, PLK3 (Homo sapiens, UniProt Q9H4B4); assay: Kinase binding assay (Kd)
T21 construct: made in house; host or cells: E. coli BL21-derived host (T7 phage) or HEK-293
Protocol: as §1, §2, §3, §4

ADCK3 = target: T22, ADCK3 (Homo sapiens, UniProt Q8NI60); assay: Kinase binding assay (Kd)
T22 construct: made in house; host or cells: E. coli BL21-derived host (T7 phage) or HEK-293
Protocol: as §1, §2, §3, §4

AKT1 = target: T23, AKT1 (Homo sapiens, UniProt P31749); assay: Kinase binding assay (Kd)
T23 construct: made in house; host or cells: E. coli BL21-derived host (T7 phage) or HEK-293
Protocol: as §1, §2, §3, §4

RET = target: T24, RET (Homo sapiens, UniProt P07949); assay: Kinase binding assay (Kd)
T24 construct: made in house; host or cells: E. coli BL21-derived host (T7 phage) or HEK-293
Protocol: as §1, §2, §3, §4

RAF1 = target: T25, RAF1 (Homo sapiens, UniProt P04049); assay: Kinase binding assay (Kd)
T25 construct: made in house; host or cells: E. coli BL21-derived host (T7 phage) or HEK-293
Protocol: as §1, §2, §3, §4

MET = target: T26, MET (Homo sapiens, UniProt P08581); assay: Kinase binding assay (Kd)
T26 construct: made in house; host or cells: E. coli BL21-derived host (T7 phage) for most kinases, HEK-293 for the rest
Protocol: as §1, §2, §3, §4

YANK3 = target: T27, YANK3 (Homo sapiens, UniProt Q86UX6); assay: Kinase binding assay (Kd)
T27 construct: made in house; host or cells: E. coli BL21-derived host (T7 phage) or HEK-293
Protocol: as §1, §2, §3, §4

FAK = target: T28, FAK (Homo sapiens, UniProt Q05397); assay: Kinase binding assay (Kd)
T28 construct: made in house; host or cells: E. coli BL21-derived host (T7 phage) for most kinases, HEK-293 for the rest
Protocol: as §1, §2, §3, §4

GSK3B = target: T29, GSK3B (Homo sapiens, UniProt P49841); assay: Kinase binding assay (Kd)
T29 construct: made in house; host or cells: E. coli BL21-derived host (T7 phage) for most kinases, HEK-293 for the rest
Protocol: as §1, §2, §3, §4

BRAF = target: T30, BRAF (Homo sapiens, UniProt P15056); assay: Kinase binding assay (Kd)
T30 construct: made in house; host or cells: E. coli BL21-derived host (T7 phage) or HEK-293
Protocol: as §1, §2, §3, §4

PDGFRA = target: T31, PDGFRA (Homo sapiens, UniProt P16234); assay: Kinase binding assay (Kd)
T31 construct: made in house; host or cells: E. coli BL21-derived host (T7 phage) for most kinases, HEK-293 for the rest
Protocol: as §1, §2, §3, §4

FGFR signaling = assay: Western blot of FGFR signaling in RT-112 cells; format: cell-based
Source text: BGJ-398, a known selective inhibitor of FGFR1 to FGFR3, was included as a reference compound. […] The major downstream pathways of FGFRs are MAPK, PI3K/AKT, and PLC-γ. RT-112 cells, which express FGFR3-TACC3, are reportedly unable to activate PLCγ due to a deletion of the last exon of FGFR3.

FGFR3 = target: T32, FGFR3 (Homo sapiens, UniProt P22607); assay: Kinase binding assay (Kd); details: FGFR3 (wild-type)
T32 construct: made in house; host or cells: E. coli BL21-derived host (T7 phage) or HEK-293
Protocol: as §1, §2, §3, §4
The compound and assay method are similar to those mentioned in Example 45.

T32 sequence (P22607 23-806): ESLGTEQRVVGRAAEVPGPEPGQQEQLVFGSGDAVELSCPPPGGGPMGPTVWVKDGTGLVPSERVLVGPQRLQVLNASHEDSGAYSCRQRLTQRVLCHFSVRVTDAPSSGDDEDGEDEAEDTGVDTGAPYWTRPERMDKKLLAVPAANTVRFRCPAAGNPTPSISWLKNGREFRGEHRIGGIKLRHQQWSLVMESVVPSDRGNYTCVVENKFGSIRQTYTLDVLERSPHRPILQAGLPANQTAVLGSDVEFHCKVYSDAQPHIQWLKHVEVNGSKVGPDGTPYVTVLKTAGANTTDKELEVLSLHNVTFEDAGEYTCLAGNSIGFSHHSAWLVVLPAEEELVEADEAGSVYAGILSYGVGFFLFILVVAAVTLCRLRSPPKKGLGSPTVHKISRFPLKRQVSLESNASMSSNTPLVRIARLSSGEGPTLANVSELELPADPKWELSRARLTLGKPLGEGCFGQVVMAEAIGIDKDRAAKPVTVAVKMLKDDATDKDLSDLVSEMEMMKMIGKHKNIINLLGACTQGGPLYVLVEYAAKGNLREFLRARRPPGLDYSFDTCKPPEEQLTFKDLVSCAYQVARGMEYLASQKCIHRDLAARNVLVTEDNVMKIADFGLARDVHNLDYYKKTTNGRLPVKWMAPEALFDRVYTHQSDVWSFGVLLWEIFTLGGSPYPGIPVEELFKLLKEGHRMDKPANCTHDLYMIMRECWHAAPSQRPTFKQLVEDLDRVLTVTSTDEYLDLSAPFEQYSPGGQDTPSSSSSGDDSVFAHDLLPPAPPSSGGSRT
T6 sequence (P78356 whole entry): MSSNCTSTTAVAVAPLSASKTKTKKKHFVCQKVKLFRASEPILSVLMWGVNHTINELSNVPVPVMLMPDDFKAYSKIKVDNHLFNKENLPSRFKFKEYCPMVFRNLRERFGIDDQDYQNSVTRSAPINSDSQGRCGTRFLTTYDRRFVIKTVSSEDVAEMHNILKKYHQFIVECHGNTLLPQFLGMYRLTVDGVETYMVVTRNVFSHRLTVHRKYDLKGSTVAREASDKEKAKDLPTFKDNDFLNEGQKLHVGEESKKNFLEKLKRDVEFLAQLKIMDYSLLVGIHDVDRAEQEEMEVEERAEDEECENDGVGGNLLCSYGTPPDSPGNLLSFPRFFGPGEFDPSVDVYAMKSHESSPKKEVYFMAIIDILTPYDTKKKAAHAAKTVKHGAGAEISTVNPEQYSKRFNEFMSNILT
T9 sequence (Q99755 whole entry): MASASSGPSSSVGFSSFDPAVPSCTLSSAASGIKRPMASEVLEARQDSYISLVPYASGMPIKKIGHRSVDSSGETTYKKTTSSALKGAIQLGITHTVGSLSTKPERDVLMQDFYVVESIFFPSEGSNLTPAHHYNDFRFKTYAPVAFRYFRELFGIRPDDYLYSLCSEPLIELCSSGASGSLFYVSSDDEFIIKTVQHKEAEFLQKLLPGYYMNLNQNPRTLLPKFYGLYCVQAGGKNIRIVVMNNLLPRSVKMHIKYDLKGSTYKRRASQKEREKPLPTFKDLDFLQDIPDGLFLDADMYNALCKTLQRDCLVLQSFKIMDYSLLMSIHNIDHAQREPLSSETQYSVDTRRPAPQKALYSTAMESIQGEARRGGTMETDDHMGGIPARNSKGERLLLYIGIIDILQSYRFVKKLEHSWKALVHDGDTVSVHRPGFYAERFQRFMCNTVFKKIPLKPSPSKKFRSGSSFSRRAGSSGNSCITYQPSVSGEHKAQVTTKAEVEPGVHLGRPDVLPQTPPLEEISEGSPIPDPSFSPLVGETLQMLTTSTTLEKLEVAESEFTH
T8 sequence (O75747 whole entry): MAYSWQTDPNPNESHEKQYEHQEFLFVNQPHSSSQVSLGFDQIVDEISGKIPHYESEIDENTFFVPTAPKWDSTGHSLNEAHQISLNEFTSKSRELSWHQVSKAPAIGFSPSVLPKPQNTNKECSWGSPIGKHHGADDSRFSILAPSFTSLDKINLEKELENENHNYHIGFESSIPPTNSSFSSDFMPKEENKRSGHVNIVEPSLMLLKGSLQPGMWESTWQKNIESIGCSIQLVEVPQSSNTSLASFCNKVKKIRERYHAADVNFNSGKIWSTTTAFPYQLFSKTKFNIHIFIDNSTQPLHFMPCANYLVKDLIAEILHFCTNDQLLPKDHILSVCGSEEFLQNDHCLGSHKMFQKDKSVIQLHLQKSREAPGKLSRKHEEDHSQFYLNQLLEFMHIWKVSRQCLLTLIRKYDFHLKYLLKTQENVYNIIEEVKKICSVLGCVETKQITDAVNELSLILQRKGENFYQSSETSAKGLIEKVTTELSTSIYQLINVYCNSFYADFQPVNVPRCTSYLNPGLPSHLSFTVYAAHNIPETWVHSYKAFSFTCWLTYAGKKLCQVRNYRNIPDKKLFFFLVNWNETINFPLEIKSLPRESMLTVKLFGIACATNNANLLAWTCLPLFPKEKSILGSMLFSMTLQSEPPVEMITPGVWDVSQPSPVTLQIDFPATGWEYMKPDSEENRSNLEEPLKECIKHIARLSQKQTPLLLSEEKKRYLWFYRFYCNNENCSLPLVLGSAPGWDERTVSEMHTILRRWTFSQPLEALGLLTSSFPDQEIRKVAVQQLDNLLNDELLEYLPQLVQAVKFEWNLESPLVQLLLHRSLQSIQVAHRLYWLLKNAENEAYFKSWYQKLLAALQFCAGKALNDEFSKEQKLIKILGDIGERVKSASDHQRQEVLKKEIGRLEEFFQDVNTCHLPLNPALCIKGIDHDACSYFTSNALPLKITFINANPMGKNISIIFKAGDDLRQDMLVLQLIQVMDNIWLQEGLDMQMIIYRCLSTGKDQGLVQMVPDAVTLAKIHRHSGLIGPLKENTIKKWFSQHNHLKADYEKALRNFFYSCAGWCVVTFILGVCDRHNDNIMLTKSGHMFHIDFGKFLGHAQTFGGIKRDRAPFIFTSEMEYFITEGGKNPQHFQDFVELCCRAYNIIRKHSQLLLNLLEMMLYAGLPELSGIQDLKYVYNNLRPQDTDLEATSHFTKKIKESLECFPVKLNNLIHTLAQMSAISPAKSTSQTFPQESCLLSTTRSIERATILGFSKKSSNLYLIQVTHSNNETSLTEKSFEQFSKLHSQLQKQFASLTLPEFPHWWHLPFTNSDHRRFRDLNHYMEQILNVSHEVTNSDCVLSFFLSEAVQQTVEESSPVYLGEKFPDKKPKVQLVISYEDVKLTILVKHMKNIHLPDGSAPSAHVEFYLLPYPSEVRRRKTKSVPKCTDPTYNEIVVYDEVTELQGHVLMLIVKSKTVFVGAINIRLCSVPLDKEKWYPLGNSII
T18 sequence (Q06187 whole entry): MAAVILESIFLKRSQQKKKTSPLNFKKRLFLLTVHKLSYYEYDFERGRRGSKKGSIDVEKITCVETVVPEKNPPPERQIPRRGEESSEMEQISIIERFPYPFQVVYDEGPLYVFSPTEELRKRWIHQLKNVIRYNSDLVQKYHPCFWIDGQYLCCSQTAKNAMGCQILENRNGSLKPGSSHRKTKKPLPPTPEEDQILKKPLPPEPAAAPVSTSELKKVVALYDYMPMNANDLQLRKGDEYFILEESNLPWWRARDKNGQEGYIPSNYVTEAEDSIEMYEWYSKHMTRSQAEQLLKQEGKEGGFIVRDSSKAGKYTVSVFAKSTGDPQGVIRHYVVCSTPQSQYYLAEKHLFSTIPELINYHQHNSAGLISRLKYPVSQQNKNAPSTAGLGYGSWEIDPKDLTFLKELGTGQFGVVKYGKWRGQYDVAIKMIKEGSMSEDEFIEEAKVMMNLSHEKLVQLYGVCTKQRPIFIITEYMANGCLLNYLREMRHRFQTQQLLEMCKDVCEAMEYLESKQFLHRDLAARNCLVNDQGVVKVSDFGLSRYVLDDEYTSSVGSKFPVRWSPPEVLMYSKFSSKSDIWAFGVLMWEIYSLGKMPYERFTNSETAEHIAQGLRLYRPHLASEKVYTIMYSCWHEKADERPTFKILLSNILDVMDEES
T3 sequence (Q8TBX8 whole entry): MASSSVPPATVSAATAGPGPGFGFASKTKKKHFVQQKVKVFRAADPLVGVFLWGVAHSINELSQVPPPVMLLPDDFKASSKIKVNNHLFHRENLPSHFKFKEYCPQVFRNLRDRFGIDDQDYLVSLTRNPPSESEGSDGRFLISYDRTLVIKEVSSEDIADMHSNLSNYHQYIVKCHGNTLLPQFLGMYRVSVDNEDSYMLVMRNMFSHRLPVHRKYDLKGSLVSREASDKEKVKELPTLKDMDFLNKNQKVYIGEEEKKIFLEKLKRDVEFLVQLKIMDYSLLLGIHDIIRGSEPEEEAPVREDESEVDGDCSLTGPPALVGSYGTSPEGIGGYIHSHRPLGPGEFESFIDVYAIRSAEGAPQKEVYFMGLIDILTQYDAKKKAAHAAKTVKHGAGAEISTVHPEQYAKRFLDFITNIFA
T1 sequence (O60331 whole entry): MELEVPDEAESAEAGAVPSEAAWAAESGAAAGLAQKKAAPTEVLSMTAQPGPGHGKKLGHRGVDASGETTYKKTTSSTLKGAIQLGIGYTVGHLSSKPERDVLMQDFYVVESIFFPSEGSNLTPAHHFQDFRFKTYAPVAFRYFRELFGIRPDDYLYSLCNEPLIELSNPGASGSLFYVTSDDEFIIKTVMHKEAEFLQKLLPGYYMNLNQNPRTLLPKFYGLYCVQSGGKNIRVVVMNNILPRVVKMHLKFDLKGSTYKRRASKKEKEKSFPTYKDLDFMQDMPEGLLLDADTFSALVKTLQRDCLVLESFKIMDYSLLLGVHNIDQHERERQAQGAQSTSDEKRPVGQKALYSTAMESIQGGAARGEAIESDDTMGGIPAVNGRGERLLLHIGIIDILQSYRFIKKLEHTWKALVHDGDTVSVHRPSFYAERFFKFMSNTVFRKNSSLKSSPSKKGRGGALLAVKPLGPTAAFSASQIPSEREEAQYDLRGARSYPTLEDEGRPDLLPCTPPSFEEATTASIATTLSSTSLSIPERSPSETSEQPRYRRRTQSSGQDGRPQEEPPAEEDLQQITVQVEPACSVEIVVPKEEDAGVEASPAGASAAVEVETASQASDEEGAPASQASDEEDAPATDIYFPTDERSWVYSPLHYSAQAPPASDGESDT

CCN1CCN(c2ccc(Nc3ncnc(N(C)C(=O)Nc4c(Cl)c(OC)c(Cl)c(OC)c4Cl)n3)cc2)CC1 [MPT0L145, 1-(4-((4-(4-ethylpiperazin-1-yl)phenyl)amino)-1,3,5-triazin-2-yl)-1-methyl-3-(2,4,6-trichloro-3,5-dimethoxyphenyl)urea]
Kd (PIP5K1C): > 10 µM | Kd (PIK3C3): 0.00053 µM | Kd (PIP5K2C): > 10 µM | Kd (PIK3CD): > 10 µM | Kd (PIKFYVE): 2.6 µM | Kd (PIP5K2B): > 10 µM | Kd (PIK3CB): > 10 µM | Kd (PIK3C2G): > 10 µM | Kd (PIP5K1A): > 10 µM | Kd (PIK3C2B): 1 µM | Kd (PIK3CG): > 10 µM | Kd (IKK-beta): > 10 µM | Kd (TYK2): 0.66 µM | Kd (PIK3CA): > 10 µM | Kd (VEGFR2): 3.1 µM | Kd (AURKB): > 10 µM | Kd (CSNK1D): > 10 µM | Kd (BTK): > 10 µM | Kd (AKT2): > 10 µM | Kd (PIM1): > 10 µM | Kd (PLK3): > 10 µM | Kd (ADCK3): > 10 µM | Kd (AKT1): > 10 µM | Kd (RET): > 10 µM | Kd (RAF1): > 10 µM | Kd (MET): > 10 µM | Kd (YANK3): > 10 µM | Kd (FAK): > 10 µM | Kd (GSK3B): > 10 µM | Kd (BRAF): > 10 µM | Kd (PDGFRA): > 10 µM | inhibiting AKT phosphorylation (FGFR signaling; 1 to 4 h, FIG. 2B, 2C): better potency than BGJ-398 | auto-phosphorylation of FGFR1 and FGFR3 and docking protein FRS2 (FGFR signaling; 1 h, FIG. 2A): exerted inhibitory activity | phosphorylation of ERK (FGFR signaling; 1 h, concentration-dependent, FIG. 2B): inhibited | phosphorylation of ERK and AKT (FGFR signaling; 8 h, FIG. 2D): fully repressed | Kd (FGFR3): 0.27 µM and 0.39 µM
